# Measured values reported in patent US20250248392A1, “LETHAL BAIT FOR PEST ANT CONTROL” (priority 2024, published 2025).
# Assays:
# Assay type in all cases: in vivo
# [1] = tested on: Myrmica rubra fire ants; experiment: Exp. 17: choice between lethal and non-lethal liquid bait, survival of laboratory colonies; settings: boric acid as lethal agent in baits; conclusion from Exps. 17-19 (M. rubra, F. oreas, C. modoc)
# [2] = tested on: Camponotus modoc field colonies; experiment: Exp. 13: seasonal consumption of liquid food baits by field colonies; settings: Exp. 13, Jun. 18 to Sep. 7, 2021
# From the text: (§1) Tubes were spaced around the entrance of C. modoc and M. rubra nests, with tube positions randomly assigned in each replicate.
# (§2) For the C. modoc experiment (Exp. 13), Eppendorf tubes were affixed 5 cm apart to trees or logs housing a colony as shown, for example, in FIG. 6b. For the M. rubra experiment (Exp. 14), tubes were placed 5 cm apart around the entrance of subterranean nests. Evaporation control tubes were placed in Tupperware containers (15 cm×9 cm×10 cm) with a mesh-covered hole in the lid, and containers were set near ant nests. Replicates with M. rubra colonies (n=10; repeated on 7 dates) were run for 4 hours, and replicates with C. modoc colonies (n=13; repeated on 6 dates) were run for 24 hours. After replicates were terminated, tubes were capped, transported to the laboratory in a cooler, and weighed. All field studies were run on warm and sunny days with observable ant activity.
# (§3) Colonies of C. modoc were located along the Mamquam forest service road (near Squamish, BC, Canada) and colonies of M. rubra were located at Inter River Park (District of North Vancouver, BC, Canada). […] Throughout the summer season, nutrient consumption by colonies was measured in circa 3-week intervals on six dates for C. modoc colonies from Jun. 18, 2021 to Sep. 7, 2021, and on seven dates for M. rubra colonies from May 21, 2021 to Sep. 13, 2021.
# [3] = tested on: Myrmica rubra field colonies; experiment: Exp. 14: seasonal consumption of liquid food baits by field colonies
# From the text: as §1, §2, §3
# [4] = tested on: Myrmica rubra fire ants; experiment: Laboratory consumption of liquid nutrient baits (Exps. 2, 4, 6, 8, 10, 12)
# Protocol: (§4) Liquid nutrient solutions for experiments (see Table 1 for nutrient concentrations) were prepared by weighing dry ingredients (TR 204 scale; Denver Instrument Company, CO, USA), and then mixing them in distilled water. Aliquots (1 mL) of these solutions were pipetted into 1.5-mL Eppendorf tubes (Thermo Fisher Scientific, Waltham, MA 02451, U.S.A.) which were stored in a freezer (−4° C.) until needed.
# (§5) Prior to experiments, Eppendorf tubes were removed from the freezer to thaw, and then vortexed to dissolve all solutes. Then, a 1-cm long piece of cotton dental wick (Richmond Dental & Medical, Charlotte, NC 28205, USA) was inserted into each tube, thus allowing ants to ingest the liquid without spillage. Also prior to bioassays, colonies were deprived of sugar water and food for 24 hours and 4 hours, respectively (the maximum time ants could endure without these foods before they attempted to chew their way out of containers). […]
# (§6) Colonies of C. modoc (Exp. 1) and M. rubra (Exp. 2) were offered three choices: (1) 11 EAAs+10 non-EAAs (1.05% total w/v) in water; (2) 10 non-EAAs (0.5% w/v) in water; and (3) a water control. […] Data were analyzed using generalized linear models (GLM) and generalized linear mixed models (GLMM). For all models, the significance (p 0.05) of each predictor was assessed using a likelihood ratio test (LRT), and Tukey adjusted pairwise comparisons between means. […]
# [5] = tested on: Lasius niger black garden ants; experiment: Exp. 15: consumption of liquid food baits by field colonies; settings: Exp. 15: EAAs 5.55%, sucrose 5.55%, EAAs 1.0% + sucrose 4.55% w/v, water
# From the text: In Experiments 15 and 16, the bait of EAAs and sucrose was effective for diverse ant taxa including black garden ants and thatching ants, as shown in FIG. 7. In Experiment 15 (n=10), colonies of Lasius niger black garden ants were located at the base of trees on the Burnaby campus of Simon Fraser University, and tubes were affixed next to each other on tree trunks alongside the ants' foraging trails. In Experiment 16 (n=10), colonies of Formica aserva thatching ants were located along the Mamquam forest service road (see above), and tubes were placed on top of tree stumps that contained an ant colony. For both experiments, evaporation control tubes were placed in Tupperware containers (15 cm×9 cm×10 cm) with a mesh-covered hole in the lid, and containers were set near ant colonies. Each colony was offered four Eppendorf tubes that contained: (1) EAAs (5.55% w/v); (2) sucrose (5.55% w/v), (3) EAAs (1.0% w/v)+sucrose (4.55% w/v); and (4) plain water (control).
# [6] = tested on: Camponotus modoc carpenter ants; experiment: Laboratory consumption of liquid nutrient baits (Exps. 1, 3, 5, 7, 9, 11); settings: Exps. 5 and 7: single nutrients and ternary blend, unadjusted and adjusted concentrations
# Protocol: as §4, §5, §6
smiles,measurement,setting,value
OB(O)O [boric acid],aversion to bait consumption,[1],not aversive to bait consumption
"OC[C@H]1O[C@@](CO)(O[C@H]2O[C@H](CO)[C@@H](O)[C@H](O)[C@H]2O)[C@@H](O)[C@@H]1O [sucrose, D-sucrose]",change of consumption over the season,[2],decreased over time
same,change of consumption over the season,"[3]; Exp. 14, May 21 to Sep. 13, 2021",declined over time
same,consumption by field colonies,"[3]; Exp. 14: EAA 5.55%, sucrose 5.55%, EAA 1.0% + sucrose 4.55% w/v, water, seven dates, 4 hours",generally consumed more sucrose
same,consumption by colonies,"[4]; Exp. 6: unadjusted concentrations (urea 2.5%, EAAs 0.55%, sucrose 2.5% w/v)",preferentially consumed
same,consumption by colonies,[4]; Exp. 8: adjusted concentrations (5.55% w/v),preferentially consumed
same,consumption by field colonies,[5],equally consumed
NC(N)=O [urea],consumption by colonies,[6],preferentially consumed
